Patent US8288396B2, “Pyrimidopyrimidoindazole derivative” (MSDKK, priority 2009, dated 2012)
Counter-ions that a name gives are not always drawn.

Experiments:
[1] = molecular target: T1, Wee1 kinase (Homo sapiens, UniProt P30291); assay: Wee1 kinase inhibitory effect (Pharmacological Test 1); type: biochemical; conditions: GST-tagged Wee1 kinase, Poly(Lys, Tyr) substrate, 10 μM ATP, 30° C. for 30 minutes
T1 construct: made in house; host or cells: Sf9 insect cells (recombinant baculovirus)
From the text: Pharmacological Test 1 (Wee1 Kinase Inhibitory Effect)
(1) Purification of Wee1 Kinase
A cDNA of Wee1 kinase with […] (GST) fused at the amino terminal thereof was inserted into a baculovirus expression vector to construct a recombinant baculovirus, with which cells of an insect cell line Sf9 were infected to overexpress the target protein. The infected cells were collected and lysed, and then the GST-tagged Wee1 kinase protein was adsorbed to a glutathione column and eluted from the column with glutathione, and the active fraction was desalted in a desalting column to give a purified enzyme.
(2) Measurement of Wee1 Kinase Activity
In measurement of the Wee1 kinase activity, a synthetic peptide, Poly(Lys, Tyr) hydrobromide (Lys:Tyr (4:1)) purchased from Sigma was used as the substrate.
The amount of the reaction mixture was 21.1 μL; and the composition of the reaction buffer was 50 mM Tris-HCl buffer (pH 7.4)/10 mM magnesium chloride/1 mM dithiothreitol. The purified Wee1 kinase, 2.5 μg of the substrate peptide, 10 μM of non-labeled adenosine triphosphate (ATP) and 1 μCi of [γ-^33P]-labeled ATP (2500 Ci/mmol or more) were added to the reaction buffer, and the resulting mixture was incubated at 30° C. for 30 minutes. Thereafter, 10 μL of 350 mM phosphate buffer was added to the reaction system to stop the reaction. The substrate peptide was adsorbed on a P81 paper filter 96-well plate and the plate was washed several times with 130 mM phosphate buffer, and the radioactivity thereof was counted using a liquid scintillation counter. The [γ-^33P]-labeled ATP was purchased from Amersham Bioscience, Ltd.
The addition of a test compound to the reaction system was carried out by preparing a series of dilutions of the compound with dimethyl sulfoxide (DMSO) and adding 1.1 μL of each dilution to the reaction system. As a control, 1.1 μL of DMSO was added to the reaction system.

[2] = tested on: Cdc2 (Cdk1) tyrosine-15 phosphorylation; assay: Inhibitory effect on Cdc2 (Cdk1) tyrosine-15 phosphorylation in NCI-H1299 cells (Pharmacological Test 2); type: cell-based; conditions: Homo sapiens, camptothecin 200 nM 16 hours, then test compound with nocodazole 8 hours, ELISA, read-out: Cdc2-Y15 Phosphorylation-Inhibitory Effect (H1299, +camptothecin) (EC50)
From the text: Pharmacological Test 2 (Method for Determining Drug Effect Using Cells (Inhibitory Effect on Cdc2 (Cdk1) Tyrosine-15 Phosphorylation))
Fetal bovine serum (FBS) was purchased from Morgate, Inc.; an RPMI-1640 medium and a DMEM medium were purchased from Invitrogen, Inc.; camptothecin was purchased from Sigma Co.; gemcitabine was purchased from Eli Lilly Japan K.K.; nocodazole and protease inhibitor cocktail were purchased from Sigma Co.; a rabbit anti-Cdc2 antibody and a mouse anti-Cdc2 antibody were purchased from Santa Cruz Biotechnology, Inc.; a rabbit anti-tyrosine-15-phosphorylated Cdc2 antibody and a horseradish peroxidase-labeled anti-mouse IgG antibody were purchased from Cell Signaling Technology, Inc.; and Sure Blue Reserve TMB peroxidase substrate was purchased from Kirkegaard & Perry Laboratories, Inc.
A human non-small cell lung cancer cell line (NCI-H1299) and a human colon cancer cell line (WiDr) can be obtained from American Type Culture Collection (ATCC).
In the method using NCI-H1299 cells, the cells were suspended in an RPMI-1640 medium supplemented with 10% FBS, and 100 μL of the resulting cell suspension was dispensed in a Nunclon Delta treated 96-well plastic plate purchased from Nunc, Inc. at a density of 2000 cells per well, and the plate was incubated overnight at 37° C. under an atmosphere of 5% CO2 and 95% air. Camptothecin was dissolved in dimethyl sulfoxide (DMSO) and further the resulting solution was diluted with an RPMI-1640 medium supplemented with 10% FBS. Then, 50 μL of the diluted solution was added to each well of the plate in which the cells were seeded in advance such that the final concentration of camptothecin was 200 nM, and the plate was incubated at 37° C. under an atmosphere of 5% CO2 and 95% air for 16 hours. A test compound was serially diluted with DMSO, and further diluted with an RPMI-1640 medium supplemented with 10% FBS containing 4000 nM nocodazole. Then, 50 μL of the test compound solution was added to each well of the plate in which the cells treated with camptothecin were seeded, and the plate was incubated at 37° C. under an atmosphere of 5% CO2 and 95% air for 8 hours. Then, the culture medium was removed from each well and 100 μL of a cell lysis buffer was added to each well, and the plate was shaken at 4° C. for 2 hours, and thereafter the liquid in the plate was frozen at −80° C. and then thawed, which was used as a lysed cell solution. Cdc2 and tyrosine-15-phosphorylated Cdc2 in this lysed cell solution were measured by an enzyme-linked immunosorbent assay (ELISA method), and a ratio of tyrosine-15-phosphorylated Cdc2 to Cdc2 was calculated to determine a 50% effective concentration (EC50, nM) of the test compound for inhibition of phosphorylation in cells. The cell lysis buffer as used herein is an aqueous solution containing 20 mM HEPES (pH 7.5), 150 mM sodium chloride, 1 mM disodium ethylenediamine tetraacetate, 0.1% polyoxyethylene (10) octylphenyl ether, 1% protease inhibitor cocktail, 1 mM dithiothreitol, 2 mM sodium orthovanadate, 10 mM sodium fluoride and 10 mM glycerol diphosphate. The measurement of Cdc2 by the ELISA method was carried out as follows. 50 μL of a solution of a rabbit anti-Cdc2 antibody obtained by diluting the antibody to 200 times with 50 mM carbonate-bicarbonate buffer (pH 9.6) was dispensed into each well of a 96-well Maxisorb immunoplate purchased from Nunc, Inc., and the immunoplate was let stand overnight at 4° C. to immobilize the antibody thereto. Subsequently, each well was washed three times with phosphate buffered saline (PBS), and 300 μL of PBS containing 5% bovine serum albumin (5% BSA/PBS) was added to each well, and then, the immunoplate was let stand at room temperature for 2 hours. […]

T1 sequence (P30291 whole entry): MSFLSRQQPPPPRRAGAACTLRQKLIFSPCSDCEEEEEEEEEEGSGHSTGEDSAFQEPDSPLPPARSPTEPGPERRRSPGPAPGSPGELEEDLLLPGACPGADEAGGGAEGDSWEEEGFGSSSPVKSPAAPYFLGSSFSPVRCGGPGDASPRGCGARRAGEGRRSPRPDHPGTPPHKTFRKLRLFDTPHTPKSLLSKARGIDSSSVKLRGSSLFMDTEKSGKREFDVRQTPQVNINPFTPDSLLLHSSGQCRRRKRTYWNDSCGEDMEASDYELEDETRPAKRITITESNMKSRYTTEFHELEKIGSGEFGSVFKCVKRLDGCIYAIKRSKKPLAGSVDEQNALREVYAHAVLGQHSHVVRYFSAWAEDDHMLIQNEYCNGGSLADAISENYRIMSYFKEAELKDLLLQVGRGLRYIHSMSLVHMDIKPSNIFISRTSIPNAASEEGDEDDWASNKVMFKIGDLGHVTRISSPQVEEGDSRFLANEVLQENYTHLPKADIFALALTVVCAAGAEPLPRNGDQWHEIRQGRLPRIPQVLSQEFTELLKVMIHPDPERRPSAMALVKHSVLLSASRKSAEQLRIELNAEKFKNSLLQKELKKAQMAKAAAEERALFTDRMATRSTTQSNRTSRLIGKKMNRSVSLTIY

IC50 [1] [nM]	EC50 [2] [nM]	SMILES
15	190	CN(C)CCN1CCc2cc(Nc3ncc4c(=O)n5c(nc4n3)c3ccccc3n5-c3nccs3)ccc21 [Example 144, 2-({1-[2-(dimethylamino)ethyl]-2,3-dihydro-1H-indol-5-yl}amino)-7-(1,3-thiazol-2-yl)pyrimido[4′,5′:4,5]pyrimido[1,2-b]indazol-5(7H)-one]
30		CN1CCN(c2ccc(Nc3ncc4c(=O)n5c(nc4n3)c3ccccc3n5-c3ccccn3)cc2)CC1 [Example 23, 2-{[4-(4-methylpiperazin-1-yl)phenyl]amino}-7-(pyridin-2-yl)pyrimido[4′,5′:4,5]pyrimido[1,2-b]indazol-5(7H)-one]
6.8	31	CN1CCc2cc(Nc3ncc4c(=O)n5c(nc4n3)c3ccccc3n5-c3ncccn3)ccc2C1(C)C [Example 103, 7-(pyrimidin-2-yl)-2-[(1,1,2-trimethyl-1,2,3,4-tetrahydroisoquinolin-6-yl)amino]pyrimido[4′,5′:4,5]pyrimido[1,2-b]indazol-5(7H)-one]
34		CN(C)Cc1ccc(Nc2ncc3c(=O)n4c(nc3n2)c2ccccc2n4-c2ncccn2)cc1 [Example 91, 2-({-4-[(dimethylamino)methyl]phenyl}amino)-7-(pyrimidin-2-yl)pyrimido[4′,5′:4,5]pyrimido[1,2-b]indazol-5(7H)-one]
26		CN1CCC(C)(c2ccc(Nc3ncc4c(=O)n5c(nc4n3)c3ccccc3n5-c3ncccn3)cc2)CC1 [Example 88, 2-{[4-(1,4-dimethylpiperidin-4-yl)phenyl]amino}-7-(pyrimidin-2-yl)pyrimido[4′,5′:4,5]pyrimido[1,2-b]indazol-5(7H)-one]
23		CN(C)CCCOc1ccc(Nc2ncc3c(=O)n4c(nc3n2)c2ccccc2n4-c2nccs2)cc1 [Example 121, 2-({4-[3-(dimethylamino)propoxy]phenyl}amino)-7-(1,3-thiazol-2-yl)pyrimido[4′,5′:4,5]pyrimido[1,2-b]indazol-5(7H)-one]
13		CN1CCN(c2ccc(Nc3ncc4c(=O)n5c(nc4n3)c3ccccc3n5-c3cscn3)cc2)CC1 [Example 146, 2-{[4-(4-methylpiperazin-1-yl)phenyl]amino}-7-(1,3-thiazol-4-yl)pyrimido[4′,5′:4,5]pyrimido[1,2-b]indazol-5(7H)-one]
3.8	43	CN1CCc2ccc(Nc3ncc4c(=O)n5c(nc4n3)c3ccccc3n5-c3ncccn3)cc2C1 [Example 101, 2-[(2-methyl-1,2,3,4-tetrahydroisoquinolin-7-yl)amino]-7-(pyrimidin-2-yl)pyrimido[4′,5′:4,5]pyrimido[1,2-b]indazol-5(7H)-one]
5.3	11	CN1CCc2cc(Nc3ncc4c(=O)n5c(nc4n3)c3ccccc3n5-c3nccs3)ccc2C1 [Example 136, 2-[(2-methyl-1,2,3,4-tetrahydroisoquinolin-6-yl)amino]-7-(1,3-thiazol-2-yl)pyrimido[4′,5′:4,5]pyrimido[1,2-b]indazol-5(7H)-one]
30	250	Cc1cc(Nc2ncc3c(=O)n4c(nc3n2)c2ccccc2n4-c2ncccn2)ccc1OCCN(C)C [Example 90, 2-({4-[2-(dimethylamino)ethoxy]-3-methylphenyl}amino)-7-(pyrimidin-2-yl)pyrimido[4′,5′:4,5]pyrimido[1,2-b]indazol-5(7H)-one]
32	111	Cc1cc(Nc2ncc3c(=O)n4c(nc3n2)c2ccccc2n4-c2ccccn2)ccc1N1CCN(C)CC1 [Example 21, 2-{[3-methyl-4-(4-methylpiperazin-1-yl)phenyl]amino}-7-(pyridin-2-yl)pyrimido[4′,5′:4,5]pyrimido[1,2-b]indazol-5(7H)-one]
4.9	31	CN1CCc2cc(Nc3ncc4c(=O)n5c(nc4n3)c3ccccc3n5-c3ccccn3)ccc2C1 [Example 43, 2-[(2-methyl-1,2,3,4-tetrahydroisoquinolin-6-yl)amino]-7-(pyridin-2-yl)pyrimido[4′,5′:4,5]pyrimido[1,2-b]indazol-5(7H)-one]
15	190	CN(C)CCN1CCOc2cc(Nc3ncc4c(=O)n5c(nc4n3)c3ccccc3n5-c3nccs3)ccc21 [Example 143, 2-({4-[2-(dimethylamino)ethyl]-3,4-dihydro-2H-1,4-benzoxazin-7-yl}amino)-7-(1,3-thiazol-2-yl)pyrimido[4′,5′:4,5]pyrimido[1,2-b]indazol-5(7H)-one]
38		CN1CCN(c2ccc(Nc3ncc4c(=O)n5c(nc4n3)c3ccccc3n5-c3ncccn3)cc2)CC1 [Example 62, 2-{[4-(4-methylpiperazin-1-yl)phenyl]amino}-7-(pyrimidin-2-yl)pyrimido[4′,5′:4,5]pyrimido[1,2-b]indazol-5(7H)-one]
19		CN1Cc2ccc(Nc3ncc4c(=O)n5c(nc4n3)c3ccccc3n5-c3ncccn3)cc2C1 [Example 102, 2-[(2-methyl-2,3-dihydro-1H-isoindol-5-yl)amino]-7-(pyrimidin-2-yl)pyrimido[4′,5′:4,5]pyrimido[1,2-b]indazol-5(7H)-one]
13		Cc1cc(Nc2ncc3c(=O)n4c(nc3n2)c2ccccc2n4-c2ccsc2)ccc1N1CCN(C)CC1 [Example 55, 2-{[3-methyl-4-(4-methylpiperazin-1-yl)phenyl]amino}-7-(3-thienyl)pyrimido[4′,5′:4,5]pyrimido[1,2-b]indazol-5(7H)-one]
8.6		CN1CCN(c2ccc(Nc3ncc4c(=O)n5c(nc4n3)c3ccc(O)cc3n5-c3ccccn3)cc2)CC1 [Example 150, 9-hydroxy-2-{[4-(4-methylpiperazin-1-yl)phenyl]amino}-7-(pyridin-2-yl)pyrimido[4′,5′:4,5]pyrimido[1,2-b]indazol-5(7H)-one trifluoroacetate]
46		CN(C)CCc1ccc(Nc2ncc3c(=O)n4c(nc3n2)c2ccccc2n4-c2ncccn2)cc1 [Example 92, 2-({4-[2-(dimethylamino)ethyl]phenyl}amino)-7-(pyrimidin-2-yl)pyrimido[4′,5′:4,5]pyrimido[1,2-b]indazol-5(7H)-one]
